Measured values as given in article PMC5657151 (Pediatric blood & cancer, 2017).
“Also recorded” adds a separate entry of the source. Read-outs that look alike come from different tables or passages of the source.

Experiments:
[1] = format: in vivo, human; conditions: for AUC(0-t) / Cmax: median (range)
[2] = tested on: relapsed or refractory solid tumors; test: Pediatric phase 1 trial: tumor response; format: in vivo, human
[3] = adults, PO bid, ref [6], [60]–[62], cited from earlier work
[4] = parameters: species or system human; conditions: in vivo

Compound: O=C1NC(=O)[C@@H](c2cn3c4c(cccc24)CCC3)[C@@H]1c1c[nH]c2ccccc12 [Tivantinib]
- Tmax, median (range) ([1]; Powder sprinkled on food, 240 mg/m^2 (n=9), Day 1 Cycle 1): 2.0 (1.0–6.0) h
- inter-patient variability in Cmax and AUC0–8h ([1]; across all dose levels): 20 fold
- AUC(0-t) ([1]; human, plasma, oral, 170 mg/m2, AUC0–8h, Capsule, 170 mg/m^2 (n=6), Day 1 Cycle 1, with food): 3820 ng·h/mL
- Tmax ([1]; human, plasma, oral, 200 mg/m2): 4 h
- AUC(0-t) ([1]; human, plasma, oral, 200 mg/m2, AUC0–8h, Capsule, 200 mg/m^2 (n=7), Day 1 Cycle 1, with food): 9470 ng·h/mL
- Cmax ([1]; human, plasma, oral, 200 mg/m2, Cmax, Capsule, 200 mg/m^2 (n=7), Day 1 Cycle 1, with food): 2180 ng/mL
- Tmax ([1]; human, plasma, oral, 240 mg/m2): 2 h
- AUC(0-t) ([1]; human, plasma, oral, 240 mg/m2, AUC0–8h, Capsule, 240 mg/m^2 (n=13), Day 1 Cycle 1, with food): 5630 ng·h/mL
- AUC(0-t) ([1]; human, plasma, oral, 240 mg/m2, AUC0–8h, Powder sprinkled on food, 240 mg/m^2 (n=9), Day 1 Cycle 1): 7300 ng·h/mL
- Cmax ([1]; human, plasma, oral, 240 mg/m2, Cmax, Capsule, 240 mg/m^2 (n=13), Day 1 Cycle 1, with food): 1300 ng/mL
- Cmax ([1]; human, plasma, oral, 240 mg/m2, Cmax, Powder sprinkled on food, 240 mg/m^2 (n=9), Day 1 Cycle 1): 1530 ng/mL
- half-life ([1]; human, plasma, oral, apparent elimination half-life, median, evaluable in 29 of 35 patients, range 1.2 – 18.0 hrs): 2.7 h
- Tmax ([1]; human, plasma, po): ~2 h
- objective responses ([2]; 32 patients evaluable for response, single agent): not observed; also recorded: no objective responses
- duration of stable disease ([2]; patient with neuroblastoma, 28-day cycles): 8 cycles
- maximum tolerated dose (MTD) ([3]; amorphous form (approximately 170 mg/m^2/dose)): 300 mg
- maximum tolerated dose (MTD) ([3]; crystalline form (approximately 210 mg/m^2/dose)): 360 mg
- Anemia, maximum Gr. 1 (number of patients) ([4]; human): 4
- Grade 1 or 2 anemia (number) ([4]; human): 12
- Grade 1 or 2 fatigue (number) ([4]; human): 8
- Grade 1 or 2 hypoalbuminemia (number) ([4]; human): 4
- Grade 1 or 2 leukopenia (number) ([4]; human): 5
- Grade 1 or 2 lymphopenia (number) ([4]; human): 8
- Grade 1 or 2 nausea (number) ([4]; human): 5
- Grade 1 or 2 neutropenia (number) ([4]; human): 5
- Grade 1 or 2 thrombocytopenia (number) ([4]; human): 3
- Grade 1 or 2 vomiting (number) ([4]; human): 5
- Hemoglobin increased, maximum Gr. 1 (number of patients) ([4]; human): 1
- Lymphocyte count decreased, maximum Gr. 1 (number of patients) ([4]; human): 2
- Lymphocyte count decreased, maximum Gr. 2 (number of patients) ([4]; human): 2
- Lymphocyte count increased, maximum Gr. 2 (number of patients) ([4]; human): 1
- Neutrophil count decreased, maximum Gr. 2 (number of patients) ([4]; human): 2
- Platelet count decreased, maximum Gr. 1 (number of patients) ([4]; human): 2
- White blood cell decreased, maximum Gr. 1 (number of patients) ([4]; human): 3
- grade 3 anemia (number) ([4]; human): 1
- grade 3 lymphopenia (number) ([4]; human): 2
- recommended phase 2 dose (RP2D) ([4]; human): 240 mg/m^2/dose
- Anemia, maximum Gr. 1 (number of patients) ([4]; human, 1 cycle): 9
- Anemia, maximum Gr. 2 (number of patients) ([4]; human, 1 cycle): 3
- Anemia, maximum Gr. 3 (number of patients) ([4]; human, 1 cycle): 1
- Fatigue, maximum Gr. 1 (number of patients) ([4]; human, 1 cycle): 5
- Fatigue, maximum Gr. 2 (number of patients) ([4]; human, 1 cycle): 3
- Hypoalbuminemia, maximum Gr. 1 (number of patients) ([4]; human, 1 cycle): 2
- Hypoalbuminemia, maximum Gr. 2 (number of patients) ([4]; human, 1 cycle): 2
- Lymphocyte count decreased, maximum Gr. 1 (number of patients) ([4]; human, 1 cycle): 3
- Lymphocyte count decreased, maximum Gr. 2 (number of patients) ([4]; human, 1 cycle): 5
- Lymphocyte count decreased, maximum Gr. 3 (number of patients) ([4]; human, 1 cycle): 2
- Nausea, maximum Gr. 1 (number of patients) ([4]; human, 1 cycle): 4
- Nausea, maximum Gr. 2 (number of patients) ([4]; human, 1 cycle): 1
- Neutrophil count decreased, maximum Gr. 1 (number of patients) ([4]; human, 1 cycle): 3
- Neutrophil count decreased, maximum Gr. 2 (number of patients) ([4]; human, 1 cycle): 2
- Platelet count decreased, maximum Gr. 1 (number of patients) ([4]; human, 1 cycle): 3
- Vomiting, maximum Gr. 1 (number of patients) ([4]; human, 1 cycle): 4
- Vomiting, maximum Gr. 2 (number of patients) ([4]; human, 1 cycle): 1
- White blood cell decreased, maximum Gr. 1 (number of patients) ([4]; human, 1 cycle): 5
- White blood cell decreased, maximum Gr. 2 (number of patients) ([4]; human, 1 cycle): 2
- Sinus bradycardia [4]: not readily apparent
- tolerability [4]: well tolerated
